Source: patent publication US12679878B2, “CRF2 receptor agonists and their use in therapy” (SANOFI, priority 2020, dated 2026)
Converted amounts (≈) assume the structure as drawn. Read-outs that look alike come from different tables or passages of the source. Starred links: 1 amine or outer side, 2 acyl side, 3 side chain; linkers in the order of their positions; H or OH if unused. Non-standard residues stand in square brackets, D forms with d. Residues, ends and D or L forms follow the SMILES beside them. Groups on a side chain read outwards from the residue. *: point of attachment. C20 diacid = O=C(O)CCCCCCCCCCCCCCCCCCC(=O)*; C18 diacid = O=C(O)CCCCCCCCCCCCCCCCC(=O)*; γGlu = O=C(O)[C@H](CCC(=O)[*:2])N[*:1]; AEEA = NCCOCCOCC(=O)O; Aib = CC(C)(N)C(=O)O

Key:
[1] = Solubility in buffer systems by UPLC-UV (Example 13); assay type: physicochemical
How it was run: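 The supernatant was diluted 1:10 and quantified by UPLC-UV peak area against a reference standard curve, correcting for sequence-based extinction coefficients.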

[2] = Pharmacokinetic properties in mice, i.v. or s.c. (Example 16); assay type: in vivo, C57BI/6 mice; conditions: female, C57BL/6, plasma, Mouse
Method: (§1) The pharmacokinetic properties of exemplary peptides SEQ ID NO: 35 and SEQ ID NO: 24 were assessed in mice and rats.
(§2) The test compound was administered in a suitable buffer system (PBS buffer solution at pH 7.4, or DPBS solution) at concentrations of 0.05, 0.1, 0.5 or 1 mg/ml depending on the dose, species and administration volume. Female C57BI/6 mice and male SD rate were dosed 0.1 mg/kg or 0.3 mg/kg intravenously or subcutaneously. The animals were sacrificed, and blood samples were collected after 0.08, 0.25, 0.5, 1, 2, 4, 8, 24, 32, and 48 hours post-intravenous administration and 0.25, 0.5, 1, 2, 4, 8, 24, 32, and 48 hours post-subcutaneous administration, respectively. Plasma samples were analysed after protein precipitation via liquid chromatography mass spectrometry (LC/MS). Pharmacokinetic parameters and half-life were calculated using Phoenix-WinNonlin 8.1 using a non-compartmental model and linear trapezoidal interpolation calculation.

[3] = Pharmacokinetic properties in rats, i.v. or s.c. (Example 16); assay type: in vivo, SD rat; conditions: Rat
Method: as §1, §2

[4] = biological target: T1, recombinant human CRF2 (Homo sapiens, UniProt Q13324); experiment: CRF2a (h) agonist radioligand binding, [125]sauvagine, HEK cell membranes (Example 11); conditions: competition with [125]sauvagine 0.1 nM
T1 construct: expressed in transfected cells; host or cells: HEK
T1 sequence (Q13324 1-411): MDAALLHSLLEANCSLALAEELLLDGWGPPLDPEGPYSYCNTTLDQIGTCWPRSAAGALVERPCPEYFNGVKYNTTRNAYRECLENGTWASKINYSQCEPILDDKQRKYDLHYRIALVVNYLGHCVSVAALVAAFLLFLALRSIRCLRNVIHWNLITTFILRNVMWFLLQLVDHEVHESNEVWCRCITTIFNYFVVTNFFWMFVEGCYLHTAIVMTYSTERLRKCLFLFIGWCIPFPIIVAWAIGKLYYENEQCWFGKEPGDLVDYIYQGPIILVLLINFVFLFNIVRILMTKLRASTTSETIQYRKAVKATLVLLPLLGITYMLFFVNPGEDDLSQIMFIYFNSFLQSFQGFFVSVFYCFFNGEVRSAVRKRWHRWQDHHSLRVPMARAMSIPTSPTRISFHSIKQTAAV
Method: Receptor binding of the compounds was assessed using a CRF2a (h) (agonist radioligand) assay.
HEK cells expressing recombinant human CRF2 were used as a source of receptor for membrane preparation.
IC50 values (concentration causing a half-maximal inhibition of control specific binding) and Hill coefficients (nH) were determined by non-linear regression analysis of the competition curves generated with mean replicate values using Hill equation curve fitting. The inhibition constants (Ki) were calculated using the Cheng Prusoff equation [Ki=IC50/(1+L/KD) where L is the concentration of radioligand in the assay, and KD is the affinity of the radioligand for the receptor). A Scatchard plot was used to determine the KD.

[5] = Chemical stability, purity loss by UPLC-UV after 28 days at 40° C. vs 5° C., pH 4.5 acetate buffer (Example 12); assay type: physicochemical; conditions: 28 days 40° C. vs 5° C.; pH 4.5, 20 mM acetate buffer; 300 μM
How it was run: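 300 μM compound (purity-corrected) in 20 mM acetate buffer, pH 4.5, stored 28 days at 5 and 40° C. Purity by UPLC-UV as compound peak area over total peak area. Value is the purity difference between 5° C. and 40° C. samples, relative to the 5° C. purity, in percent.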

[6] = Physical stability, Thioflavin T fibrillation assay (Example 14); assay type: physicochemical; conditions: 3 mg/ml, 37° C. shaking
How it was run: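 Compounds at 3 mg/ml final in buffer were stressed at 37° C by repeated cycles of 10 s shaking at 960 rpm and 50 s rest. ThT fluorescence was read every 20 minutes in eight replicates, with fluorescence increase and lag time indicating fibrillation tendency.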

[7] = pH 4.5, Solubility in Buffer B [mg/ml]
[8] = pH 7.4, Solubility in Buffer C [mg/ml]
[9] = male, Sprague-Dawley (SD), plasma, iv, 0.1 mg/kg i.v.
[10] = male, Sprague-Dawley (SD), plasma, sc, 0.1 mg/kg s.c.
[11] = Buffer A: 100 mM acetate buffer, pH 4.5
[12] = Buffer B: 100 mM acetate buffer, pH 4.5, 2.7 mg/ml m-cresol

Structure (SMILES): CC[C@H](C)[C@H](N)C(=O)N[C@H](C(=O)N[C@@H](CC(C)C)C(=O)N[C@@H](CO)C(=O)N[C@@H](CC(C)C)C(=O)N[C@@H](CC(=O)O)C(=O)N[C@H](C(=O)N1CCC[C@H]1C(=O)N[C@H](C(=O)N[C@@H](CCCCN)C(=O)N[C@@H](CC(C)C)C(=O)N[C@@H](CCCCNC(=O)COCCOCCNC(=O)COCCOCCNC(=O)CC[C@H](NC(=O)CCCCCCCCCCCCCCCCC(=O)O)C(=O)O)C(=O)N[C@@H](CCCCN)C(=O)N[C@H](C(=O)N[C@@H](CC(C)C)C(=O)N[C@@H](CC(C)C)C(=O)N[C@@H](CCC(=O)O)C(=O)N[C@@H](CCC(N)=O)C(=O)N[C@@H](CCC(=O)O)C(=O)N[C@@H](CCCCN)C(=O)N[C@@H](CCC(N)=O)C(=O)N[C@@H](CCCCN)C(=O)N[C@@H](CCCCN)C(=O)N[C@@H](CCC(N)=O)C(=O)N[C@@H](CCCNC(=N)N)C(=O)N[C@@H](CCC(=O)O)C(=O)N[C@@H](CCC(N)=O)C(=O)N[C@@H](C)C(=O)N[C@@H](CCC(=O)O)C(=O)N[C@H](C(=O)N[C@@H](CC(N)=O)C(=O)N[C@@H](CCCCN)C(=O)N[C@@H](CCC(N)=O)C(=O)N[C@H](C(=O)N[C@@H](CC(C)C)C(=O)N[C@@H](C)C(=O)N[C@@H](CCC(N)=O)C(=O)N[C@H](C(N)=O)C(C)C)[C@@H](C)CC)[C@@H](C)O)[C@@H](C)CC)[C@@H](C)CC)C(C)C)C(C)C [compound 35] (H-IVLSLDVPIKLK([AEEA-AEEA-γGlu-C18 diacid])KILLEQEKQKKQREQAETNKQILAQV-NH2; N-terminus assumed)
- solubility at 1 h [1, 7]: > 8.7 mg/mL
- solubility at 1 h [1, 8]: > 9.8 mg/mL
- AUC(0-t) ([2]; iv, 0.3 mg/kg i.v.): 23.7 µg·h/mL
- Cmax ([2]; iv, 0.3 mg/kg i.v.): 4.15 µg/mL
- half-life ([2]; iv, 0.3 mg/kg i.v.): 6.4 h
- clearance ([2]; iv, 0.3 mg/kg i.v., read-out: CI (converted)): 0.0126 L/h/kg
- AUC(0-t) ([2]; sc, 0.1 mg/kg s.c.): 18.5 µg·h/mL
- Cmax ([2]; sc, 0.1 mg/kg s.c.): 1.41 µg/mL
- half-life ([2]; sc, 0.1 mg/kg s.c.): 5.5 h
- AUClast ([3]; 0.1 mg/kg i.v.): 2.79 µg·h/mL
- clearance ([3]; male, SD, plasma, iv, 0.1 mg/kg i.v., read-out: CI (converted)): 0.0358 L/h/kg
- bioavailability ([3]; male, SD, plasma, sc, 0.1 mg/kg s.c.): 45.8%
- Cmax [3, 9]: 1.9 µg/mL
- half-life [3, 9]: 3 h
- AUC(0-t) [3, 10]: 1.2 µg·h/mL
- Cmax [3, 10]: 0.131 µg/mL
- half-life [3, 10]: 6.1 h
- nH (Hill coefficient) [4]: 1.7
- Relative purity loss [%] [5]: 4.45%
- Increase in FI (fluorescence intensity) [6, 11]: No
- Lag time [6, 11]: >45 h
- Increase in FI (fluorescence intensity) [6, 12]: No
- Lag time [6, 12]: >45 h

Structure (SMILES): CC[C@H](C)[C@H](NC(=O)[C@H](CCC(N)=O)NC(=O)[C@H](CCC(=O)O)NC(=O)[C@H](CC(C)C)NC(=O)[C@H](CC(C)C)NC(=O)[C@H](CCC(N)=O)NC(=O)[C@H](CCCCN)NC(=O)[C@H](CC(N)=O)NC(=O)[C@H](CCCCN)NC(=O)[C@H](CCC(=O)O)NC(=O)[C@H](C)NC(=O)[C@H](CCC(N)=O)NC(=O)[C@H](CCC(N)=O)NC(=O)[C@H](CCCNC(=N)N)NC(=O)[C@H](CCC(=O)O)NC(=O)[C@H](CCCCN)NC(=O)[C@H](CCCCN)NC(=O)[C@H](CCC(N)=O)NC(=O)[C@H](CCCCN)NC(=O)[C@H](CCC(N)=O)NC(=O)[C@H](CCC(N)=O)NC(=O)[C@H](CCCCN)NC(=O)[C@H](CC(C)C)NC(=O)[C@H](CC(C)C)NC(=O)[C@@H](NC(=O)[C@H](CCC(N)=O)NC(=O)[C@H](CCCCNC(=O)COCCOCCNC(=O)COCCOCCNC(=O)CC[C@H](NC(=O)CCCCCCCCCCCCCCCCCCC(=O)O)C(=O)O)NC(=O)[C@@H](NC(=O)[C@H](CCCCN)NC(=O)[C@@H](NC(=O)[C@@H]1CCCN1C(=O)[C@@H](NC(=O)[C@H](CC(=O)O)NC(=O)[C@H](CC(C)C)NC(=O)[C@H](CO)NC(=O)[C@H](CC(C)C)NC(=O)[C@@H](NC(=O)[C@@H](N)Cc1ccccc1)[C@@H](C)O)C(C)C)[C@@H](C)O)[C@@H](C)CC)[C@@H](C)CC)C(N)=O [compound 59] (H-FTLSLDVPTKIK([AEEA-AEEA-γGlu-C20 diacid])QILLKQQKQKKERQQAEKNKQLLEQI-NH2)
- solubility at 1 h ([1]; Buffer B: 100 mM acetate buffer, pH 4.5, 2.7 mg/ml m-cresol, target 10 mg/ml, read-out: Solubility in Buffer B): > 9.4 mg/mL
- solubility at 1 h ([1]; Buffer C: 100 mM phosphate buffer, pH 7.4, target 10 mg/ml, read-out: Solubility in Buffer C): > 9.1 mg/mL
- nH (Hill coefficient) [4]: 0.6
- Relative purity loss [%] [5]: 2.85%

Structure (SMILES): CC[C@H](C)[C@H](N)C(=O)N[C@H](C(=O)N[C@@H](CC(C)C)C(=O)N[C@@H](CO)C(=O)N[C@@H](CC(C)C)C(=O)N[C@@H](CC(=O)O)C(=O)N[C@@H](C(=O)N1CCC[C@H]1C(=O)N[C@H](C(=O)N[C@@H](CCCCN)C(=O)N[C@@H](CC(C)C)C(=O)N[C@@H](CCCCNC(=O)COCCOCCNC(=O)COCCOCCNC(=O)CC[C@H](NC(=O)CCCCCCCCCCCCCCCCC(=O)O)C(=O)O)C(=O)N[C@@H](CCC(N)=O)C(=O)N[C@H](C(=O)N[C@@H](CC(C)C)C(=O)N[C@@H](CC(C)C)C(=O)N[C@@H](CCCCN)C(=O)N[C@@H](CCC(N)=O)C(=O)N[C@@H](CCC(=O)O)C(=O)N[C@@H](CCCNC(=N)N)C(=O)N[C@@H](CCC(N)=O)C(=O)N[C@@H](CCCCN)C(=O)NC(C)(C)C(=O)N[C@@H](CCC(N)=O)C(=O)N[C@@H](CCCNC(=N)N)C(=O)N[C@@H](CCC(N)=O)C(=O)N[C@@H](CCC(N)=O)C(=O)N[C@@H](C)C(=O)N[C@@H](CCC(=O)O)C(=O)N[C@@H](CCCCN)C(=O)N[C@@H](CC(N)=O)C(=O)N[C@@H](CCCCN)C(=O)N[C@@H](CCC(N)=O)C(=O)N[C@H](C(=O)N[C@@H](CC(C)C)C(=O)N[C@@H](C)C(=O)N[C@@H](CCC(N)=O)C(=O)N[C@H](C(N)=O)C(C)C)[C@@H](C)CC)[C@@H](C)CC)[C@@H](C)CC)C(C)C)C(C)C [compound 135] (H-IVLSLD[dV]PIKLK([AEEA-AEEA-γGlu-C18 diacid])QILLKQERQK[Aib]QRQQAEKNKQILAQV-NH2; N-terminus assumed)
- solubility at 1 h ([1]; pH 4.5, Solubility in Buffer A [mg/ml]): > 8.4 mg/mL
- solubility at 1 h [1, 7]: > 9.2 mg/mL
- solubility at 1 h [1, 8]: 7.5 mg/mL (≈ 1450 µM)
- Relative purity loss [%] [5]: 3.55%
- Increase in FI (fluorescence intensity) [6, 12]: No
- Lag time [6, 12]: >45 h
